Data set [1] deals with T1, human PPARα (Homo sapiens, UniProt Q07869).
T1 construct: expressed in transfected cells; host or cells: MCF-7 human breast cancer cells, transiently transfected (DOTAP)
T1 sequence (Q07869 1-468): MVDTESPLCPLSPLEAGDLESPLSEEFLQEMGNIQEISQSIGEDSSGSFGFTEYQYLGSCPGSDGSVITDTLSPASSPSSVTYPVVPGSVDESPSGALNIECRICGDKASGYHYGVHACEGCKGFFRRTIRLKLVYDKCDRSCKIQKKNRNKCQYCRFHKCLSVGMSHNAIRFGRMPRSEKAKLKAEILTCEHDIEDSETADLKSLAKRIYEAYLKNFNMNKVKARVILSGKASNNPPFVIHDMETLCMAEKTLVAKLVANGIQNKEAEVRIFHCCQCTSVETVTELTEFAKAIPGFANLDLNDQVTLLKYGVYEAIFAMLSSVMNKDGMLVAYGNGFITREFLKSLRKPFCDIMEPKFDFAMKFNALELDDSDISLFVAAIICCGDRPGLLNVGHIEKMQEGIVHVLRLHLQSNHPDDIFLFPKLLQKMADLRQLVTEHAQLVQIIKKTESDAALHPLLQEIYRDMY
Nature of the data set: Luciferase reporter gene assay (RGA) in transfected MCF-7 cells. It counts as cell-based. The conditions noted are these: for induction of the basal level of PPARα on the PPRE (relative luciferase activity): endogenous coregulator levels, 10 μM WY14643, 1 μM OEA and analogs; for induction of the basal level of PPARα on the PPRE (relative luciferase activity) / induction of luciferase activity with overexpression of TIF2: MCF-7 cells, 16 h; for induction of luciferase activity with overexpression of TIF2: TIF2 cotransfected, 1 μM; for activation of PPARα (receptor-mediated transcription): summary statement. As to the method:
FIG. 2: Agonistic action of OEA and analogs. Luciferase reporter gene assays were performed with extracts from MCF-7 cells that were transiently transfected with a luciferase reporter construct containing three copies of the human ACO of PPRE. (A) Wild type human PPARα expression vector was also cotransfected as indicated. Cells were treated for 16 h with solvent (DMSO), and different concentrations (*10^−8, *10^−7, **10^−6 and **10^−5 M) of OEA, compound 2, or *10^−7, **10^−6 and **10^−5 M of anandamide (AEA, used as a negative control), 7 (*10^−8, *10^−7, **10^−6 and **10^−5 M) and 12 (*10^−7, **10^−6 and **10^−5 M). (*p<0.05, (**) p<0.01 vs vehicle, #p<0.01 vs vehicle and without ACO) (B) Wild type human PPARα expression as well as plasmids coding full length TIF2 were also cotransfected as indicated. Cells were treated for 16 h with solvent (DMSO), 10 μM WY14643, 1 μM OEA and its analogs 2, 7 and 12. Relative luciferase activities were measured in reference to solvent-induced cells not overexpressing any protein. Columns represent the mean of at least three experiments and bars indicate SD. (*p<0.01 vs vehicle, #p<0.01 vs vehicle and without TIF2).
Breast cancer human cells MCF-7 were seeded in a 6-well culture plate (10^5 cells/mL) and cultured in a Dulbecco modified Eagle medium (DMEM) free from phenol red, supplied with 5% of fetal bovine serum (FBS) treated with carbon (Macias-Gonzalez, M et al. Mol. End. 17 (2003): 2028).
The liposomes with DNA plasmids were obtained by incubation of 1 μg of the reporter plasmid with luciferase and the wild type human PPAR-α expression vector with 10 μg of N-1-(2,3-dioleyloxi)-propyl-N,N,N-trimethylammonium (DOTAP from Roche Diagnostics) for 15 minutes at room temperature in a total volume of 100 μL. After the dilution with 900 μL of DMEM free from phenol red, the liposomes were added to the cells. 4-5 h after the transfection of the cells, the DMEM free from phenol red supplemented with 500 μL of FBS treated with carbon at 15% was added, in this case with the PPAR-α ligands (OEA, AEA and sulfamides derivatives) or control solvents (DMSO) at different concentrations of 10^−8, 10^−7, 10^−6 and 10^−5 M.
The cells were lysed 16 hours after the beginning of the stimulation with the reporter gene lysis buffer (Roche Diagnostics) and the reporter gene assay or RGA luciferase of constant luminous signal was carried out following the manufactures recommendations (Roche Diagnostics). The luciferase activities were standardized with regard to the protein concentration and the induction factors were calculated as the ratio of luciferase activity of ligand stimulated cells in relation to the solvent controls (Vaisanen, S. et al. Mol. Pharmacol. 62 (2002):788).

Data set [2] can be described thus: Food intake study: acute treatment in food-deprived rats. It counts as in vivo, male Wistar rats. The note with it: i.p., rats food-deprived 24 h; 30, 60, 120 and 240 min. The method, then: FIG. 3: Activity of OEA analogs as feeding suppressants. Food intake in food-deprived animals was tested 30, 60, 120 and 240 min after the i.p injection of the different compounds synthesized at different doses. Here we show results for compounds 2 (A), 7 (B), 12 (C), 19 (D) and 20 (E). […] Results are means±SEM of at least three determinations per group. (*) p<0.05, (**) p<0.01, (***) p<0.001, versus vehicle, ANOVA.
The effects of the different compounds on feeding behaviour were analyzed in male Wistar rats deprived of food for 24 hours, which were accustomed to its manipulation (Navarro, M et al. 1996 J. Neurochem. 67 (1996):1982. Rodriguez de Fonseca, F. et al. Nature 414 (2001):209. Fu, J et al. Nature, 425 (2003):90). For this aim, 48 hours before every assay rats were set out in single cages, the base material (sand or sawdust) was removed and little food containers were set out into the cage for 4 hours. After this initial phase, animals were deprived of food for 24 hours, always with free access to water. After 24 hours of fast, different treatment groups were established (N=8-10 every group) and different doses of the sulfamide corresponding to each experimental session were administrated i.p. in their vehicle solution in a volume of 1 mL/kg, as well as a control group only treated with the vehicle: • 1) Group treated with a 0.03 mg/kg dose of the sulfamide in vehicle solution. • 2) Group treated with a […] dose of the sulfamide in vehicle. • 3) Group with a 3 mg/kg dose of the corresponding sulfamide in vehicle. • 4) Control group treated with the vehicle tween-80 at 5% in physiological serum.
15 minutes after the administration, the containers with a known food amount (normally 30-40 g) and a bottle of fresh water were placed. These containers were weighted 30, 60, 120 and 240 minutes after their presentation, so that the food ingested by each animal was controlled.

For data set [3] the following is noted: cited from earlier work.
Data set [4] can be described thus: Food intake studies: chronic treatment, body weight and plasma triglycerides. It counts as in vivo, male Wistar rats. The method, then: (§1) FIG. 4: Effects of chronic treatment with 7 (N-octadecyl-N′-propylsulfamide) on body weight gain and plasma triglycerides. […] Results are means±SEM of at least three determinations per group. (*) p<0.05, versus vehicle, ANOVA.
A chronic treatment with the compounds was carried out using male Wistar rats which were accustomed to its manipulation.
For this aim, rats were set out in single cages keeping the base material (sand or sawdust). After an adaptation phase to the conditions of the husbandry where the assay was carried out, three different groups (N=8 every group) were established according to the received treatment: • 1) Group treated with example 6 in its vehicle solution with a 1 mg/kg dose. • 2) Group treated with tween-80 vehicle at 5% in physiological serum. • 3) Control group treated with physiological serum.
The total duration of the experiment was eight days, with two i.p. daily administrations (injected volume of 1 mL/kg) of the different solutions with an interval of 12 hours between both injections. Everyday and previously to the administration at 8:00, each animal was weighted. During the total time of the assay, the single weight of each animal and the biochemical parameters in serum were daily controlled.

A short description of data set [5]: Subchronic treatment in genetically obese Zucker rats. The class given is in vivo. The note with it: 11 days, 1 mg/kg i.p. daily.
Excerpt: as §1
To further explore the anti-obesity properties of this compound, we used an additional animal model of obesity.

Where [6] appears, read: 8 days, 1 mg/kg i.p., normal rats, vs vehicle, 1 mg/kg.

Entries after “also recorded” stand apart in the source; their conditions may differ.

Take `CCCCCCCC/C=C\CCCCCCCCNS(=O)(=O)NCCC`: the melting point lay in the range of 82 to 83 °C.
Still for that read-out and setting: the result for `CCCCCCCCCCCCCCCCNS(=O)(=O)NCCC` [Compound 8, N-hexadecyl-N′-propylsulfamide] reads 108 to 110 °C.
`CCCCCCCCCCCCCCCCNS(N)(=O)=O` [Compound 3, N-hexadecylsulfamide] came in with a melting point of 102 to 104 °C.
As to `Cc1cccc(Nc2cc(Cl)nc(SCC(=O)O)n2)c1C` [WY14643, reference compound], in data set [1], the “induction of the basal level of PPARα on the PPRE (relative luciferase activity)” value (“induction … (relative luciferase activity)” below) was ~6 times.
`CCCCCCCC/C=C\CCCCCCCCNS(N)(=O)=O` [Compound 1, N-(cis-9-octadecenyl)sulfamide]: the melting point fell in the range of 68 to 70 °C.
Same read-out and setting: the result for `CCCCCCCCCCCCCCNS(N)(=O)=O` [Compound 4, N-tetradecylsulfamide] reads 99 to 101 °C.
`CCCCCCCCCCCCCCCCCCNS(N)(=O)=O` [Compound 2, N-octadecylsulfamide] yielded a melting point of 105 to 107 °C. In data set [1], the “induction of luciferase activity with overexpression of TIF2” value is reported as “did not provide significantly higher induction”, the “induction … (relative luciferase activity)” value is reported as “did not provide induction” and the “activation of PPARα (receptor-mediated transcription)” value (“activation of PPARα” below) was “did not activate PPAR receptor-mediated transcription; also recorded: does not activate PPARα”. The “food intake / feeding behaviour” value in data set [2] was “clearly reduced food intake; also recorded: reduces feeding behaviour”.
Regarding `CCCCCCCC/C=C\CCCCCCCC(=O)NCCO` [OEA], the “induction … (relative luciferase activity)” value in data set [1] is ~6 times. In data set [3] (described in the literature), the “dose at which hypolipemiant effects are present” value is reported as “greater than 5 mg/kg”. For the same molecule, the “food intake (literature finding)” value in data set [3] (through activation of the nuclear receptor PPARα) is given as “decrease food intake”.
With `CCCCCCCCCCCCCCCCCCNS(=O)(=O)NCCC` [Compound 7, N-octadecyl-N′-propylsulfamide], the melting point lay in the range of 110 to 112 °C. In data set [1], the “induction … (relative luciferase activity)” value is ~6 times and the “activation of PPARα” value is “potent activator of PPARα”. Also, in data set [2], the “food intake / feeding behaviour” value was “potent feeding suppressant”. Also, in data set [4] (setting [6]), the body weight result is reported as “reduces body weight” and the plasma triglycerides result was “marked reduction in plasma triglycerides; also recorded: reduces”. The same molecule had an active dose in data set [4] (i.p.) of 1 mg/kg. Also, the food intake result in data set [5] was “reduced”. Further, in data set [5] (1 mg/kg), the “body weight gain (cumulative relative weight gain)” value is listed as “reduced body weight gain; also recorded: reduces cumulative relative weight gain”.
Take `CCCNS(=O)(=O)NC12CC3CC(CC(C3)C1)C2` [Compound 12, N-propyl-N′-adamantylsulfamide]: in data set [1], the “induction of luciferase activity with overexpression of TIF2” value is reported as “did not provide significantly higher induction”, the “induction … (relative luciferase activity)” value is “did not provide induction” and the “activation of PPARα” value is on record as “neither activates PPARα”. Moreover, the “food intake / feeding behaviour” value in data set [2] is on record as “nor suppress food intake”.
As to `CCCCCCCCCCCCCCNS(=O)(=O)NCCC` [Compound 9, N-propyl-N′-tetradecylsulfamide], the melting point is 105 to 107 °C.
